These are literature values, as cited in patent publication US20170112823A1, “COMPOSITIONS AND METHODS TO TREAT […] RELATED CONDITIONS” (priority 2015, published 2017).

The conditions of this data set: frequency of side effect.

For the compound `CNCC[C@H](Oc1cccc2ccccc12)c1cccs1` [Cymbalta, Duloxetine], the “side effect: dizziness” value is listed as 19%, the “side effect: dry mouth” value is on record as 23%, the “side effect: headache” value was 20% and the “side effect: nausea” value is 34%.
Take `CC(C)C[C@H](CN)CC(=O)O` [LYRICA, Pregabalin]: the “side effects: very commonly, dizziness and drowsiness” value is greater than 10%.
